In US20250144138A1, “Chimeric Antigen Receptor Therapies and Vasoactive Intestinal Peptide Receptor Antagonists” (Emory University, priority 2021, published 2025):

Tested on: CAR T cells
Assay: Proliferation of CAR T cells co-cultured with antigen-relevant target cells, treated with exogenous VIP and/or VIPR antagonist
Type: cell-based
Procedure: Experiments were performed to determine whether antigen-stimulation increases VPAC1+ CAR T cells and VIPR antagonism enhances CAR T cell proliferation in the presence of VIP. CAR T cells were co-cultured alone or with antigen-relevant or antigen-irrelevant […] for 24 hrs. VPAC1 and VPAC2 expression was evaluated via flow cytometry. […] CAR T cells co-cultured with antigen-relevant target cells were treated with exogenous VIP and/or VIPR antagonist. Proliferation of CAR T cells is suppressed by VIP and rescued by exogenous VIPR antagonist (FIGS. 2A-2C).

Q: For vasoactive intestinal peptide [VIP], which “Proliferation of CAR T cells” value is on record?
A: suppressed
